In patent US8759348B2, “Use of 4-(pyrrolidin-1-yl)quinoline compounds to kill clinically latent microorganisms” (Helperby Therapeutics Limited, priority 2007, dated 2014):

System: persister Mycobacterium tuberculosis
Format: cell-based
Conditions: 10 μg/mL of test compound

SMILES: Cc1cc(N2CCC(Cc3ccccc3)C2)c2cc(Oc3ccccc3)ccc2n1.Cl (stereo not shown) [Example 8, 4-(3-Benzylpyrrolidin-1-yl)-2-methyl-6-phenoxyquinoline hydrochloride]
- log kill: 2.26
